For 33 molecules, Ki results are on record in US9969687B2, “Compounds useful as CCR9 modulators” (Norgine B.V., priority 2013, dated 2018).

Assay [1] has as its target T1, CCR9 (Homo sapiens (Human), UniProt P51686). The assay can be described thus: FLIPR calcium flux assay using MOLT4 cells, TECK stimulation. The format is cell-based. As to conditions: MOLT4 cells (human T-cell line). In outline:
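MOLT4 cells in HBSS/20 mM HEPES with probenecid, Fluo-4 NW loaded, preincubated with compound (10 μM-0.1 nM final, half-log) for 60 min before TECK stimulation. Calcium rise read on FLIPR; IC50 from four-parameter fit, converted to Ki using TECK concentration and same-day TECK EC50.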

Assay [2] addresses T1, CCR9. The assay can be described thus: FLIPR calcium flux assay using hCCR9 over expressed cells (Chem1-hCCR9), TECK stimulation. The format is cell-based. As to conditions: Chem1-hCCR9 overexpressing cells. As to the method:
Biological Activity: FLIPR Assay Using hCCR9 Over Expressed Cells
A calcium flux assay was used to determine the ability of the compounds to interfere with the binding between CCR9 and its chemokine ligand (TECK) in Chem1-hCCR9 overexpressing cells. hCCR9 overexpressing cells were seeded (25,000 cells/well) into black Poly-D-Lysine coated clear bottom 96-well plates (BD Biosciences, Cat #356640) and incubated overnight at 37° C./5% CO2 in a humidified incubator. Media was aspirated and cells washed twice with 100 μL assay buffer (1×HBSS, 20 mM HEPES) containing 2.5 mM Probenecid. A 0.3× Fluo-4 NW calcium dye was prepared in assay buffer containing 5 mM Probenecid and stored in the dark. Each well was loaded with 100 μL of 0.3× Fluo-4 NW calcium dye and incubated at 37° C./5% CO2 for 60 minutes and then at room temperature for 30 minutes. A half-log serially diluted concentration response curve was prepared at a 3× final assay concentration for each compound (10 μM-0.1 nM final assay concentration) and 50 μL of the compound then transferred to the cells (150 μL final volume) for 60 minutes prior to stimulation (30 minutes at 37° C./5% CO2 and 30 minutes at room temperature). TECK was diluted to 4× its EC80 in assay buffer (containing 0.1% [w/v] bovine serum albumin [BSA]) and 50 μL dispensed through the fluorometric imaging plate reader (FLIPR) instrument to stimulate the cells (200 μL final volume). The increase in intracellular calcium levels was measured with the FLIPR instrument. The potency of the compound as a CCR9 antagonist was calculated as an IC50 using GraphPad Prism software (variable slope four parameter). The Ki of the compound was determined from the IC50 values using the following equation. IC50/1+(Agonist (TECK) conc. used in assay/EC50 of agonist (TECK) generated on day of experiment) Ki calculation: […]

SMILES strings stand for the structures.

T1 sequence (P51686 whole entry): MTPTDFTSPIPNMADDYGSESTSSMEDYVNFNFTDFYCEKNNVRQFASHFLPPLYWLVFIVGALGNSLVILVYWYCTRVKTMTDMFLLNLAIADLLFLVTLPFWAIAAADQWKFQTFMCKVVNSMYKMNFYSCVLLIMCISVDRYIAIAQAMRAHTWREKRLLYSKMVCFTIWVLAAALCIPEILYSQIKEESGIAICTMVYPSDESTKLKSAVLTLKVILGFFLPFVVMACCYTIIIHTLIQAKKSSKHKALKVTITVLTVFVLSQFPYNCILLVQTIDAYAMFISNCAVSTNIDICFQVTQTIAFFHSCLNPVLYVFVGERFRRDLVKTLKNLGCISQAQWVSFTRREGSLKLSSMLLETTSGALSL

For `COc1ccncc1N1C(=O)c2c(Cl)ccc(NS(=O)(=O)c3ccc(C(C)(C)C)cc3)c2C1=O` [Compound 119], the values for the Ki at CCR9 [1] and at CCR9 [2] were 2 nM and 35 nM, respectively.
For `Cc1cccc(N2C(=O)c3c(Cl)ccc(NS(=O)(=O)c4ccc(C(C)(C)C)cc4)c3C2=O)[n+]1[O-]` [Compound 233], in that order: 19 nM and 21 nM.
The matching figures for `CC(C)(C)c1ccc(S(=O)(=O)Nc2ccc(C#N)c3c2C(=O)N(Cc2cccnc2)C3=O)cc1` [Compound 82, 4-(tert-butyl)-N-(7-cyano-1,3-dioxo-2-(pyridin-3-ylmethyl)isoindolin-4-yl)benzenesulfonamide]: 19 nM and 98 nM.
The matching figures for `CC(C)(C)c1ccc(S(=O)(=O)Nc2ccc(Cl)c3c2C(=O)N(Cc2cccc[n+]2[O-])C3=O)cc1` [Compound 199]: 6 nM and 10 nM.
Regarding `Cc1nccnc1N1C(=O)c2c(Cl)ccc(NS(=O)(=O)c3ccc(C(C)(C)C)cc3)c2C1=O` [Compound 270], the Ki was found to be 23 nM at CCR9 [1] and 61 nM at CCR9 [2].
The matching figures for `CC(C)(C)c1ccc(S(=O)(=O)Nc2ccc(Cl)c3c2C(=O)N(Cc2ccccn2)C3=O)cc1` [Compound 191]: 20 nM and 33 nM.
In the case of `COc1ncccc1N1C(=O)c2c(Cl)ccc(NS(=O)(=O)c3ccc(C(C)(C)C)cc3)c2C1=O` [Compound 183], the Ki on CCR9 [1] and at CCR9 [2] was 3 nM throughout.
With `CC(C)(C)c1ccc(S(=O)(=O)Nc2ccc(Cl)c3c2C(=O)N(c2cccc[n+]2[O-])C3=O)cc1` [Compound 274], the Ki at CCR9 [1] is 34 nM; on CCR9 [2] it was 50 nM.
The matching figures for `CC(C)(C)c1ccc(S(=O)(=O)Nc2ccc(Cl)c3c2C(=O)N(c2cccnc2)C3=O)cc1` [Compound 43, 4-(tert-butyl)-N-(7-chloro-1,3-dioxo-2-(pyridin-3-yl)isoindolin-4-yl)benzenesulfonamide]: 25 nM and 42 nM.
For `COc1cccnc1N1C(=O)c2c(Cl)ccc(NS(=O)(=O)c3ccc(C(C)(C)C)cc3)c2C1=O` [Compound 202], in that order: 22 nM and 49 nM.
With `CC(C)(C)c1ccc(S(=O)(=O)Nc2ccc(Cl)c3c2C(=O)N(Cc2ccc[n+]([O-])c2)C3=O)cc1` [Compound 65, 3-((4-(4-(tert-butyl)phenylsulfonamido)-7-chloro-1,3-dioxoisoindolin-2-yl)methyl)pyridine 1-oxide], the Ki is 13 nM at CCR9 [1] and 74 nM at CCR9 [2].
For `CC(C)(C)c1ccc(S(=O)(=O)Nc2ccc(Cl)c3c2C(=O)N(c2ccsc2C(=O)O)C3=O)cc1` [Compound 288], in that order: 3 nM and 23 nM.
Consider `CC(C)(C)c1ccc(S(=O)(=O)Nc2ccc(Cl)c3c2C(=O)N(Cc2ncccc2F)C3=O)cc1` [Compound 239], for which the results for the Ki on CCR9 [1] and at CCR9 [2] were 13 nM and 23 nM, respectively.
With `CC(C)(C)c1ccc(S(=O)(=O)Nc2ccc(Cl)c3c2C(=O)N(c2ccc[nH]c2=O)C3=O)cc1` [Compound 281, 4-(tert-butyl)-N-(7-chloro-1,3-dioxo-2-(2-oxo-1,2-dihydropyridin-3-yl)isoindolin-4-yl)benzenesulfonamide], the Ki turned out to be 5 nM at CCR9 [1] and 4 nM at CCR9 [2].
The matching figures for `Cc1cncc(N2C(=O)c3c(Cl)ccc(NS(=O)(=O)c4ccc(C(C)(C)C)cc4)c3C2=O)n1` [Compound 220]: 12 nM and 42 nM.
With `Cc1cnccc1N1C(=O)c2c(Cl)ccc(NS(=O)(=O)c3ccc(C(C)(C)C)cc3)c2C1=O` [Compound 244], the Ki at CCR9 [1] was found to be 6 nM; on CCR9 [2], 3 nM.
For `Cc1cnc(C)c(N2C(=O)c3c(Cl)ccc(NS(=O)(=O)c4ccc(C(C)(C)C)cc4)c3C2=O)c1` [Compound 263], in that order: 11 nM and 25 nM.
For `COc1cccc(N2C(=O)c3c(Cl)ccc(NS(=O)(=O)c4ccc(C(C)(C)C)cc4)c3C2=O)c1` [Compound 138], in that order: 83 nM and 138 nM.
For `Cc1ccncc1CN1C(=O)c2c(Cl)ccc(NS(=O)(=O)c3ccc(C(C)(C)C)cc3)c2C1=O` [Compound 208], in that order: 24 nM and 16 nM.
As for `Cn1nnc(N2C(=O)c3c(Cl)ccc(NS(=O)(=O)c4ccc(C(C)(C)C)cc4)c3C2=O)n1` [Compound 234], the results for the Ki on CCR9 [1] and at CCR9 [2] were 45 nM and 43 nM, respectively.
For `COc1ccc[n+]([O-])c1N1C(=O)c2c(Cl)ccc(NS(=O)(=O)c3ccc(C(C)(C)C)cc3)c2C1=O` [Compound 211], in that order: 33 nM and 61 nM.
For `CC(C)(C)c1ccc(S(=O)(=O)Nc2ccc(Cl)c3c2C(=O)N(c2cccnn2)C3=O)cc1` [Compound 203], the Ki came to 38 nM on CCR9 [1] and 59 nM at CCR9 [2].
For `Cc1cccc(N2C(=O)c3c(Cl)ccc(NS(=O)(=O)c4ccc(C(C)(C)C)cc4)c3C2=O)n1` [Compound 228], in that order: 5 nM and 6 nM.
For `CC(C)(C)c1ccc(S(=O)(=O)Nc2ccc(Cl)c3c2C(=O)N(Cc2c(F)ccc[n+]2[O-])C3=O)cc1` [Compound 241], in that order: 5 nM and 7 nM.
The matching figures for `COC(=O)c1cc(N2C(=O)c3c(Cl)ccc(NS(=O)(=O)c4ccc(C(C)(C)C)cc4)c3C2=O)nn1C` [Compound 292]: 11 nM and 16 nM.
Take `CC(C)(C)c1ccc(S(=O)(=O)Nc2ccc(Cl)c3c2C(=O)N(Cc2cncc(C#N)c2)C3=O)cc1` [Compound 195]: the Ki came to 31 nM at CCR9 [1] and 42 nM at CCR9 [2].
The matching figures for `Cc1ccnc(N2C(=O)c3c(Cl)ccc(NS(=O)(=O)c4ccc(C(C)(C)C)cc4)c3C2=O)n1` [Compound 216]: 23 nM and 49 nM.
For `CC(C)(C)c1ccc(S(=O)(=O)Nc2ccc(Cl)c3c2C(=O)N(Cc2cccnc2)C3=O)cc1` [Compound 64, 4-(tert-butyl)-N-(7-chloro-1,3-dioxo-2-(pyridin-3-ylmethyl)isoindolin-4-yl)benzenesulfonamide], in that order: 22 nM and 27 nM.
For `Cc1ncccc1N1C(=O)c2c(Cl)ccc(NS(=O)(=O)c3ccc(C(C)(C)C)cc3)c2C1=O` [Compound 175, 4-(tert-butyl)-N-(7-chloro-2-(2-methylpyridin-3-yl)-1,3-dioxoisoindolin-4-yl)benzenesulfonamide], in that order: 3 nM and 12 nM.
`COc1ccc(N2C(=O)c3c(Cl)ccc(NS(=O)(=O)c4ccc(C(C)(C)C)cc4)c3C2=O)nc1C` [Compound 260]: the Ki stood at 16 nM on CCR9 [1] and 22 nM on CCR9 [2].
For `CC(C)(C)c1ccc(S(=O)(=O)Nc2ccc(Cl)c3c2C(=O)N(Cc2ccc[nH]c2=O)C3=O)cc1` [Compound 284], in that order: 7 nM and 12 nM.
For `Cc1ccc(N2C(=O)c3c(Cl)ccc(NS(=O)(=O)c4ccc(C(C)(C)C)cc4)c3C2=O)cn1` [Compound 182], the results for the Ki on CCR9 [1] and on CCR9 [2] were 19 nM and 58 nM, respectively.
The matching figures for `Cc1cc(N2C(=O)c3c(Cl)ccc(NS(=O)(=O)c4ccc(C(C)(C)C)cc4)c3C2=O)c[n+]([O-])c1` [Compound 214]: 20 nM and 53 nM.
